Molecules are shown by their SMILES. “And” between values parts separate entries of the source, which are not always exact repeats. Identical values can stand only once.

Data on 17 molecules can be found in patent USRE43327E1, “Hydrophobic polyamine analogs and methods for their use” (Aminex Therapeutics, Inc., priority 2001, dated 2012).

Type in all cases: cell-based
For test [1], the system named is PC-3. Briefly: Growth inhibition assay (MTS/PMS) with DFMO, PC-3. The note with it: in the presence of DFMO (1-5 mM), 1 mM AG, 0.5 μM SPD, six days; repeat determinations; read-out: Cell Line EC50 PC-3. The protocol: (§1) Medias were obtained from Mediatech, Inc. (Herdon, Va.) and serums from Gibco BRL (Gaithersburg, Md.). 50 U/ml penicillin, 50 μg/ml streptomycin and 2 mM L-glutamine (all from Bio Whittaker, Walkersville, Md.) were included in all cultures. […] When cells were cultured with polyamines or ORI compounds, 1 mM aminoguanidine (AG; Sigma) was included to inhibit serum amine oxidase activity.

For test [2], the system named is 4 cell lines (A375, MDA-MB-231, PC-3, SK-OV-3). As to the kind of experiment: Growth inhibition with DFMO, average over 4 cell lines. The note with it: for EC50: Table 3, average over cell lines, with DFMO, read-out: AVG. EC50; for growth inhibition / EC50 with polyamine synthesis inhibitor, comparison in words: compared with lysine-spermine conjugates (ORI 1202, ORI 1426) or PAs lacking a hydrophobic domain.
Protocol: Cells were plated in 96-well plates such that they would be in log growth for the duration of the assay. The day after plating, PAs were added to the cells, and growth, if any, permitted to continue for six days in the presence of 1 mM AG and 0.5 μM SPD to insure that any growth inhibition was not the result of depletion of external polyamines in the media. At the end of the six days, cell growth was measured by MTS/PMS dye assay (Cell Titer 96 Aqueous Non-Radioactive Cell Proliferation Assay; Promega, Madison, Wis.).

The test system of test [3] is MDA-MB-231. As to the kind of experiment: Growth inhibition assay (MTS/PMS) with DFMO, MDA-MB-231. To be noted: in the presence of DFMO (1-5 mM), 1 mM AG, 0.5 μM SPD, six days; repeat determinations; read-out: Cell Line EC50 MDA-MB-231. The protocol: as §1
Test [4] concerns SK-OV-3. Briefly: Growth inhibition assay (MTS/PMS) with DFMO, SK-OV-3. The note with it: in the presence of DFMO (1-5 mM), 1 mM AG, 0.5 μM SPD, six days; repeat determinations; read-out: Cell Line EC50 SK-OV-3. How it is done: as §1
For test [5], the system named is A375. Briefly: Growth inhibition assay (MTS/PMS) with DFMO, A375. The note with it: in the presence of DFMO (1-5 mM), 1 mM AG, 0.5 μM SPD, six days; repeat determinations; read-out: Cell Line EC50 A375. The protocol:
as §1

Test [6] concerns SK-OV-3. As to the kind of experiment: Growth inhibition assay, PA alone, SK-OV-3. The note with it: PA alone (no DFMO), six days; repeat determinations; read-out: Cell Line IC50 SK-OV-3. The protocol: as §1
The subject of test [7] is A375. Briefly: Growth inhibition assay, PA alone, A375. The note with it: PA alone (no DFMO), six days; repeat determinations; read-out: Cell Line IC50 A375. How it is done:
as §1

Test [8] deals with MDA-MB-231. As to the kind of experiment: Growth inhibition assay, PA alone, MDA-MB-231. The note with it: PA alone (no DFMO), six days; repeat determinations; read-out: Cell Line IC50 MDA-MB-231. How it is done: as §1
For test [9], the system named is PC-3. Briefly: Growth inhibition assay, PA alone, PC-3. The note with it: PA alone (no DFMO), six days; repeat determinations; read-out: Cell Line IC50 PC-3. The protocol:
as §1

Consider `CCCCCCCCCCCCCCCCC(=O)NCCCC[C@H](N)C(=O)NCCCNCCCCNCCCN` [IA3], for which the EC50 (as a rule, the concentration giving half of the maximal effect) is 0.022 µM in test [1]; 0.053 µM in test [2]; 0.032 µM and 0.018 µM in test [3]; 0.097 µM and 0.167 µM in test [4]; < 0.01 µM and 0.01 µM in [5].

With `CCCCCCCCCCCCCC(=O)NCCCC[C@H](N)C(=O)NCCCNCCCCNCCCN` [IA5], the IC50 (as a rule, the concentration needed to halve the response being measured) in [6] was 21.5 µM; in test [7], > 30 µM; in test [8] it was > 30 µM; in [9] it was 9.87 µM. The EC50 is 0.189 µM in test [1]; 1.26 µM in test [2]; 0.208 µM in [3]; 4.6 µM in [4]; 0.025 µM in test [5].

For `CCCCCCCC(=O)NCCCC[C@H](N)C(=O)NCCCNCCCCNCCCN` [IA7], the IC50 in test [6], in test [7], in test [8] and in test [9] was > 30 µM in each case. Further, the EC50 was 1.35 µM and 0.853 µM in [1]; 6.23 µM in test [2]; 1.12 µM in test [3]; > 30 µM in test [4]; 2.3 µM and 1.75 µM in test [5].

Turning to `CC(=O)NCCCC[C@H](N)C(=O)NCCCNCCCCNCCCN` [IA11], the half-maximal inhibitory concentration (IC50) in test [6], in [7], in [8] and in test [9] was > 30 µM each time. For the same molecule, the EC50 in [1] was 2.3 µM; in test [3] it was > 30 µM; in [4], > 30 µM; in [5], > 30 µM. Further, the “growth inhibition / EC50 with polyamine synthesis inhibitor, comparison in words” value in [2] is reported as “higher EC50”.

On to `NCCCNCCCCNCCCNC(=O)[C@@H](N)CCCCNC(=O)CCCCCCCCC(=O)NCCCC[C@H](N)C(=O)NCCCNCCCCNCCCN` [IA19], for which the half-maximal inhibitory concentration (IC50) in [6], in test [7], in [8] and in test [9] was > 30 µM each time. Also, the EC50 was > 30 µM in test [1], > 30 µM in test [3], > 30 µM in test [4] and 0.214 µM in test [5]. For the same molecule, in test [2], the “growth inhibition / EC50 with polyamine synthesis inhibitor, comparison in words” value is listed as “no improvement”.

For `NCCCNCCCCNCCCNC(=O)[C@@H](N)CCCCNC(=O)c1ccc(N)cc1` [IA28], the IC50 in [6], in [7], in [8] and in test [9] was > 30 µM in each case. For the same molecule, the EC50 is 0.982 µM in [1], > 30 µM in test [3], > 30 µM in [4] and 1.66 µM in test [5].

Consider `CC(C)CC(=O)NCCCC[C@@H](N)C(=O)NCCCNCCCCNCCCN` [IB35], for which the IC50 in test [6], in [7], in test [8] and in test [9] was > 100 µM each time. In addition, the EC50 in test [1], in test [2], in test [3], in [4] and in test [5] was > 100 µM in each case.

In the case of `CCCCCCCCCCCCCCCC(=O)NC(CCCCN)C(=O)NCCCNCCCCNCCCN` (stereo not drawn) [ID4], the 50% inhibitory concentration (IC50) in test [6] was 18.1 µM; in [7], 17.9 µM; in [8] it was 18.6 µM; in test [9] it was 18.7 µM. The EC50 in test [1] amounted to 1.33 µM; in test [2] it was 1.26 µM; in [3] it was 0.636 µM; in test [4] it was 2.64 µM; in test [5] it was 0.44 µM.

Consider `CCCCCCCC(=O)NC(CCCCN)C(=O)NCCCNCCCCNCCCN` (stereo not drawn) [ID7], for which the IC50 in [6], in test [7], in [8] and in [9] was > 30 µM each time. Further, the EC50 in test [1] was 7.42 µM; in test [2] it was 9.54 µM; in test [3], 8.25 µM; in [4] it was 17.2 µM; in [5], 5.29 µM.

Take `NCCCC[C@H](NC(=O)c1ccccc1)C(=O)NCCCNCCCCNCCCN` [ID24]: the IC50 in test [6], in [7], in test [8] and in test [9] was > 30 µM in each case. The EC50 in [1] was 3.3 µM; in test [3], 4.75 µM; in test [4], > 30 µM; in [5] it was 5.98 µM.

For `NCCCCC(NC(=O)c1ccco1)C(=O)NCCCNCCCCNCCCN` (stereo not drawn) [ID25], the IC50 in test [6], in [7], in test [8] and in [9] was > 30 µM in each case. Also, the EC50 in test [1] is 5.27 µM; in test [3] it was 8.76 µM; in [4], > 30 µM; in test [5] it was 8.78 µM.

In the case of `NCCCNCCCCNCCCNC(=O)[C@@H](N)CCCCNS(=O)(=O)c1ccccc1` [IIA16], the IC50 in test [6], in [7], in [8] and in [9] was > 30 µM throughout. In addition, the EC50 in [1] is 0.72 µM; in test [3], 2.57 µM; in [4] it was > 30 µM; in [5] it was 1.21 µM.

With `Cc1cc(C)c(S(=O)(=O)NCCCC[C@H](N)C(=O)NCCCNCCCCNCCCN)c(C)c1` [IIA17], the IC50 in test [6] was > 30 µM; in test [7] it was > 30 µM; in test [8], 605 µM; in test [9], > 30 µM. The half-maximal effective concentration (EC50) was 0.18 µM in [1], < 1 µM in test [3], 2.59 µM in [4] and 0.629 µM in [5].

With `CN(C)c1cccc2c(S(=O)(=O)NCCCC[C@H](N)C(=O)NCCCNCCCCNCCCN)cccc12` [IIA20], the IC50 in test [6], in [7], in test [8] and in test [9] was > 30 µM in each case. In addition, the EC50 in [1] was 0.463 µM; in test [2], 1.28 µM; in test [3], 1.61 µM; in test [4], 2.65 µM; in test [5] it was 0.405 µM.

`CCS(=O)(=O)N[C@@H](CCCCN)C(=O)NCCCNCCCCNCCCN` [IID2]: the IC50 in [6], in test [7], in test [8] and in [9] was > 30 µM each time. For the same molecule, the EC50 in [1], in test [2], in [3], in test [4] and in test [5] was > 30 µM throughout.

Turning to `Cc1cc(C)c(S(=O)(=O)NC(CCCCN)C(=O)NCCCNCCCCNCCCN)c(C)c1` (stereo not drawn) [IID17], the IC50 in test [6], in test [7], in [8] and in test [9] was > 30 µM each time. In addition, the EC50 in test [1] stood at 4.09 µM; in test [2] it was 9.74 µM; in test [3] it was 5.1 µM; in [4], 23.9 µM; in test [5], 5.87 µM.

In the case of `CCCCCCCC/C=C\CCCCCCCC(=O)NCCCC[C@H](N)C(=O)NCCCNCCCCNCCCN` [IIIA1], the IC50 in test [6], in test [7], in [8] and in test [9] was > 30 µM each time. Besides, the EC50 was determined as 0.386 µM in [1]; 0.264 µM in test [2]; 0.197 µM in test [3]; 0.398 µM in [4]; 0.076 µM in [5].
